TGI data for 14 compounds are collected here from PubChem BioAssay (NCI).

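Step 1: Grow cells in 96-well plates. Step 2: Expose to compound for 48 hours at 5 concentrations. Step 3: Interpolate endpoints linearly; if unreached, use highest concentration. At the TGI there is no net growth.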

Holding throughout (assay): inhibition of tumour cell growth, NCI panel, 48 h
For experiment [1], the system named is SK-OV-3 ovarian.
Experiment [2] concerns SN12C renal.
In experiment [3] the test system is OVCAR-3 ovarian.
For experiment [4], the system named is CCRF-CEM leukemia.
In experiment [5] the test system is ACHN renal.
Experiment [6] deals with UO-31 renal.
Experiment [7] concerns EKVX NSCLC.
In experiment [8] the test system is NCI-H226 lung.
Experiment [9] has as its system IGROV1 ovarian.
Experiment [10] deals with SR leukemia.

For `C[C@H]1[C@H](C)CC[C@]2(C(=O)O)CCC3(COC(=O)/C=C/c4ccc(O)cc4)C(=CCC4[C@@]5(C)CC[C@H](O)C(C)(C)C5CC[C@]43C)[C@H]12` (stereo partly specified), the TGI was 6.99 µM in experiment [1]; 20.8 µM in experiment [2]; 24.5 µM in experiment [3]; 17.3 µM in experiment [4]; 13.1 µM in experiment [5]; 15.6 µM in experiment [6]. In addition, the TGI in experiment [7] was 24.6 µM; in experiment [8] it was 23.4 µM; in experiment [9], 15.4 µM; in experiment [10], 64.3 µM.
`CC(=O)c1ccc(Nc2nc3ccccc3c3occc23)cc1`: the TGI in experiment [1] is 58.8 µM; in experiment [2], > 100 µM; in experiment [3] it was 71.2 µM; in experiment [4], 67.3 µM; in [5], 60.2 µM; in [6] it was 96.4 µM. The TGI in [7] is > 100 µM; in experiment [8], 98 µM; in experiment [9] it was 36.2 µM; in experiment [10], 18.4 µM.
Regarding `CCOC(=O)C(C(=O)OCC)S(C)(=O)=O`, the TGI in [1], in experiment [2], in experiment [3], in experiment [4], in [5] and in experiment [6] was > 100 µM throughout. In addition, the TGI in experiment [7], in experiment [8], in experiment [9] and in experiment [10] was > 100 µM each time.
For the compound `COc1cc2c(cc1OC)-c1cc3cc(OC)c(OC)cc3c(C)[n+]1CC2` (tested in a mixture with another compound), the TGI in experiment [1] is > 100 µM; in experiment [2] it was > 100 µM; in experiment [3], > 100 µM; in experiment [4], 77 µM; in [5], > 100 µM; in experiment [6], > 100 µM. The TGI in experiment [7] is > 100 µM; in [8] it was > 100 µM; in [9], > 100 µM; in experiment [10] it was […].
Turning to `Cc1ccc(C(CCO)CCO)nc1`, the TGI in experiment [1], in experiment [2], in experiment [3], in [4], in experiment [5] and in experiment [6] was > 100 µM throughout. Besides, the TGI in [7], in experiment [8] and in [10] was > 100 µM throughout.
In the case of `CCCCCCc1cc2cc(-c3cn4ccccc4n3)c(=O)oc2cc1O`, the TGI in experiment [1] was 26.5 µM; in experiment [2] it was 17.5 µM; in experiment [3], 15.7 µM; in experiment [4], > 100 µM; in [5] it was 38.1 µM; in experiment [6], 20.7 µM. In addition, the TGI in experiment [7] was 45.4 µM; in [8], 34.5 µM; in [9], 27.7 µM; in experiment [10], 18.8 µM.
Turning to `C[N+]1(C)C/C(=C\C=C\c2ccccc2)C(=O)/C(=C/C=C/c2ccccc2)C1`, the TGI is 98.8 µM in experiment [1]; 62.5 µM in [2]; 42.6 µM in experiment [3]; 13.7 µM in [4]; > 100 µM in experiment [5]; > 100 µM in experiment [6]. For the same compound, the TGI in experiment [7] was > 87.4 µM; in experiment [8] it was > 72.1 µM; in experiment [9] it was 35.8 µM; in experiment [10], 23.9 µM.
Take `Cn1c2ccccc2c(=NNc2ccc(S(=O)(=O)N=C(N)N)cc2)c2ccccc21`: the TGI in experiment [1] was found to be 21.3 µM; in experiment [2], 21.9 µM; in experiment [3], 23 µM; in experiment [4] it was 31.9 µM; in experiment [5], 20.1 µM; in [6] it was 22 µM. The TGI in experiment [7] was determined as 25 µM; in experiment [8], 19 µM; in experiment [9], 28.5 µM; in experiment [10], 40.5 µM.
For `CC(C)(C)c1cc(OCc2n[nH]c(=S)n2N)c(Cl)cc1OCc1n[nH]c(=S)n1N`, the TGI in experiment [1] is > 100 µM; in experiment [2] it was 94 µM; in experiment [3] it was > 100 µM; in experiment [4], > 100 µM; in experiment [5], > 100 µM; in [6], > 100 µM. The TGI in experiment [7], in experiment [8], in experiment [9] and in experiment [10] was > 100 µM in each case.
Turning to `CCOC(=O)c1c(Br)c(-c2ccc([N+](=O)[O-])cc2)c(Br)n1C`, the TGI in experiment [1], in experiment [2], in experiment [3], in experiment [4], in experiment [5] and in experiment [6] was > 10 µM throughout. Also, the TGI in [7], in [8], in experiment [9] and in experiment [10] was > 10 µM throughout.
As for `O=S1(=O)OCCOS(=O)(=O)C1(Br)Br`, the TGI in experiment [1], in [2], in experiment [3], in experiment [4], in experiment [6] and in experiment [7] was > 100 µM in each case. The TGI was 94.1 µM in experiment [8] and > 100 µM in [10].
On to `O=c1[nH]nc(-c2ccccc2)n1-n1cccc1`, for which the TGI in experiment [1], in [2], in experiment [3], in experiment [4], in [5] and in experiment [6] was > 100 µM each time. The TGI in experiment [7] was > 100 µM; in experiment [8], > 100 µM; in experiment [9] it was > 100 µM; in experiment [10] it was 97 µM.
With `CC(Cn1c(=O)oc2ccccc21)N(C)C` (stereo unspecified), the TGI in experiment [1], in [2], in experiment [3], in experiment [4], in experiment [5] and in experiment [7] was > 100 µM in each case. Moreover, the TGI in experiment [8], in experiment [9] and in experiment [10] was > 100 µM each time.
Take `COc1c(-c2ccc(F)cc2)oc2c(CC(=O)O)cccc2c1=O`: the TGI in experiment [1] is > 100 µM; in [2], > 100 µM; in experiment [3], > 100 µM; in experiment [4], > 100 µM; in experiment [5], > 100 µM; in [6], 96.6 µM. For the same compound, the TGI in experiment [7], in experiment [8], in experiment [9] and in [10] was > 100 µM throughout.
